The record followed here is patent US20240269139A1, “COMPOUNDS FOR TARGETED PROTEIN DEGRADATION OF KINASES” (DANA-FARBER CANCER INSTITUTE, INC., priority 2020, published 2024).

Where two headings read alike, the source gives them in different places.

What all share (format): cell-based
Experiment [1] has as its target protein kinases (human kinome) (Homo sapiens, UniProt Q5TCX8). The note with it: for logFC: MAP3K21 (Q5TCX8); for logFC MAP3K21 (Q5TCX8): direction of change down.
Experiment [2] deals with T1, protein kinases (human kinome) (Homo sapiens, UniProt P51955).
T1 sequence (P51955 1-445): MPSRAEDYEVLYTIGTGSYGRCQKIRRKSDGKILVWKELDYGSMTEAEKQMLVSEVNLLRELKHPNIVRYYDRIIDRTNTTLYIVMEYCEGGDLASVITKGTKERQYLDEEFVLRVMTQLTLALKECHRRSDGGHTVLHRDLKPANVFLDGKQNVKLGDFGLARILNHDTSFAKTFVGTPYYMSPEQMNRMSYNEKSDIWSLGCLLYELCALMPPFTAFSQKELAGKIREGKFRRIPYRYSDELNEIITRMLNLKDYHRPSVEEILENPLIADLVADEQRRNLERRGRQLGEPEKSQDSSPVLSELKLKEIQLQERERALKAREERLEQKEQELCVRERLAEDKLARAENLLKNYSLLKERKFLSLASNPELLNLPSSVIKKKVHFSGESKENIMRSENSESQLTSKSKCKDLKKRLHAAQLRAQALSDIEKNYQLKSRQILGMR
The note with it: NEK2 (P51955).

Experiment [3] deals with T2, protein kinases (human kinome) (Homo sapiens, UniProt P52789).
T2 sequence (P52789 1-917): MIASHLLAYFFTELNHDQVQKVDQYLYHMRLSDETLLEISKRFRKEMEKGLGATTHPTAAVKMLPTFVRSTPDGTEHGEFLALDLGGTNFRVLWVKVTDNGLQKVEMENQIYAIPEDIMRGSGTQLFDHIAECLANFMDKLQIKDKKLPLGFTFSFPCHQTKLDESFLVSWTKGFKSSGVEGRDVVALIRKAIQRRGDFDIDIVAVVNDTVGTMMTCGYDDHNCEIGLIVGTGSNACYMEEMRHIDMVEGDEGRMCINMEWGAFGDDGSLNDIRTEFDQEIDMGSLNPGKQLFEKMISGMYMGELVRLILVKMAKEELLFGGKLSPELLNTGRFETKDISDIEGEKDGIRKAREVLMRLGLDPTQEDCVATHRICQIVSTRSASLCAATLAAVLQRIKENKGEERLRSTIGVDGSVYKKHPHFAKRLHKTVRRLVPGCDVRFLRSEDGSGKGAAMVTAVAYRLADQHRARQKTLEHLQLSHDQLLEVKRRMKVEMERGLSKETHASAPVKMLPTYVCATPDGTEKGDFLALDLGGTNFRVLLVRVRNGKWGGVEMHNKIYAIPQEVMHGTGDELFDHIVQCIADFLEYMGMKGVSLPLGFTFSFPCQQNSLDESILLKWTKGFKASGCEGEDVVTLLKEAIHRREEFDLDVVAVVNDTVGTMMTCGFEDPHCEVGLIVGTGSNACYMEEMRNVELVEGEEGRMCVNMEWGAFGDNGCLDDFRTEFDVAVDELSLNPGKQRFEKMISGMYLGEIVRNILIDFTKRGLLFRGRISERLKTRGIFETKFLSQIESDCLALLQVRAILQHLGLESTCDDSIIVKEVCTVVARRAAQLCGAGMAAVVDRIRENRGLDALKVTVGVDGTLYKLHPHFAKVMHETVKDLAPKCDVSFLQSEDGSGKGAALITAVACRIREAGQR
The note with it: HK2 (P52789); experiment wp076.

Experiment [4] concerns the target protein kinases (human kinome) (Homo sapiens, UniProt O75676). The note with it: for logFC: RPS6KA4 (O75676).
For experiment [5], the target named is protein kinases (human kinome) (Homo sapiens, UniProt Q5S007). The note with it: for logFC: LRRK2 (Q5S007).
The target in experiment [6] is protein kinases (human kinome) (Homo sapiens, UniProt P07948). The note with it: for logFC: LYN (P07948-1).
In experiment [7] the target is T3, protein kinases (human kinome) (Homo sapiens, UniProt Q8TBX8).
T3 sequence (Q8TBX8 1-421): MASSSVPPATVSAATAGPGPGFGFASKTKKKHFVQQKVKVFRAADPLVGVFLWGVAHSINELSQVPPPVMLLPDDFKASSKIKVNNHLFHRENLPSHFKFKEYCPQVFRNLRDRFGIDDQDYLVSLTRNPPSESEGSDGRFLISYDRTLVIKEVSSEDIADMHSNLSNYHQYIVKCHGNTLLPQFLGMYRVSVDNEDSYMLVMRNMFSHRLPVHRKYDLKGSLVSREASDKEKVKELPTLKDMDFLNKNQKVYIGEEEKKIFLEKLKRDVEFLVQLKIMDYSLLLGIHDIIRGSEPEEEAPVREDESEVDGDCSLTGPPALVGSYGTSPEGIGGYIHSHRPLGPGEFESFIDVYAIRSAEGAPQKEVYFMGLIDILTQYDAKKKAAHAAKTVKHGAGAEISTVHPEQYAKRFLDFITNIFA
The note with it: PIP4K2C Q8TBX8-1.

Sequence of protein kinases (human kinome) (Homo sapiens, UniProt Q5S007) (Q5S007 whole entry): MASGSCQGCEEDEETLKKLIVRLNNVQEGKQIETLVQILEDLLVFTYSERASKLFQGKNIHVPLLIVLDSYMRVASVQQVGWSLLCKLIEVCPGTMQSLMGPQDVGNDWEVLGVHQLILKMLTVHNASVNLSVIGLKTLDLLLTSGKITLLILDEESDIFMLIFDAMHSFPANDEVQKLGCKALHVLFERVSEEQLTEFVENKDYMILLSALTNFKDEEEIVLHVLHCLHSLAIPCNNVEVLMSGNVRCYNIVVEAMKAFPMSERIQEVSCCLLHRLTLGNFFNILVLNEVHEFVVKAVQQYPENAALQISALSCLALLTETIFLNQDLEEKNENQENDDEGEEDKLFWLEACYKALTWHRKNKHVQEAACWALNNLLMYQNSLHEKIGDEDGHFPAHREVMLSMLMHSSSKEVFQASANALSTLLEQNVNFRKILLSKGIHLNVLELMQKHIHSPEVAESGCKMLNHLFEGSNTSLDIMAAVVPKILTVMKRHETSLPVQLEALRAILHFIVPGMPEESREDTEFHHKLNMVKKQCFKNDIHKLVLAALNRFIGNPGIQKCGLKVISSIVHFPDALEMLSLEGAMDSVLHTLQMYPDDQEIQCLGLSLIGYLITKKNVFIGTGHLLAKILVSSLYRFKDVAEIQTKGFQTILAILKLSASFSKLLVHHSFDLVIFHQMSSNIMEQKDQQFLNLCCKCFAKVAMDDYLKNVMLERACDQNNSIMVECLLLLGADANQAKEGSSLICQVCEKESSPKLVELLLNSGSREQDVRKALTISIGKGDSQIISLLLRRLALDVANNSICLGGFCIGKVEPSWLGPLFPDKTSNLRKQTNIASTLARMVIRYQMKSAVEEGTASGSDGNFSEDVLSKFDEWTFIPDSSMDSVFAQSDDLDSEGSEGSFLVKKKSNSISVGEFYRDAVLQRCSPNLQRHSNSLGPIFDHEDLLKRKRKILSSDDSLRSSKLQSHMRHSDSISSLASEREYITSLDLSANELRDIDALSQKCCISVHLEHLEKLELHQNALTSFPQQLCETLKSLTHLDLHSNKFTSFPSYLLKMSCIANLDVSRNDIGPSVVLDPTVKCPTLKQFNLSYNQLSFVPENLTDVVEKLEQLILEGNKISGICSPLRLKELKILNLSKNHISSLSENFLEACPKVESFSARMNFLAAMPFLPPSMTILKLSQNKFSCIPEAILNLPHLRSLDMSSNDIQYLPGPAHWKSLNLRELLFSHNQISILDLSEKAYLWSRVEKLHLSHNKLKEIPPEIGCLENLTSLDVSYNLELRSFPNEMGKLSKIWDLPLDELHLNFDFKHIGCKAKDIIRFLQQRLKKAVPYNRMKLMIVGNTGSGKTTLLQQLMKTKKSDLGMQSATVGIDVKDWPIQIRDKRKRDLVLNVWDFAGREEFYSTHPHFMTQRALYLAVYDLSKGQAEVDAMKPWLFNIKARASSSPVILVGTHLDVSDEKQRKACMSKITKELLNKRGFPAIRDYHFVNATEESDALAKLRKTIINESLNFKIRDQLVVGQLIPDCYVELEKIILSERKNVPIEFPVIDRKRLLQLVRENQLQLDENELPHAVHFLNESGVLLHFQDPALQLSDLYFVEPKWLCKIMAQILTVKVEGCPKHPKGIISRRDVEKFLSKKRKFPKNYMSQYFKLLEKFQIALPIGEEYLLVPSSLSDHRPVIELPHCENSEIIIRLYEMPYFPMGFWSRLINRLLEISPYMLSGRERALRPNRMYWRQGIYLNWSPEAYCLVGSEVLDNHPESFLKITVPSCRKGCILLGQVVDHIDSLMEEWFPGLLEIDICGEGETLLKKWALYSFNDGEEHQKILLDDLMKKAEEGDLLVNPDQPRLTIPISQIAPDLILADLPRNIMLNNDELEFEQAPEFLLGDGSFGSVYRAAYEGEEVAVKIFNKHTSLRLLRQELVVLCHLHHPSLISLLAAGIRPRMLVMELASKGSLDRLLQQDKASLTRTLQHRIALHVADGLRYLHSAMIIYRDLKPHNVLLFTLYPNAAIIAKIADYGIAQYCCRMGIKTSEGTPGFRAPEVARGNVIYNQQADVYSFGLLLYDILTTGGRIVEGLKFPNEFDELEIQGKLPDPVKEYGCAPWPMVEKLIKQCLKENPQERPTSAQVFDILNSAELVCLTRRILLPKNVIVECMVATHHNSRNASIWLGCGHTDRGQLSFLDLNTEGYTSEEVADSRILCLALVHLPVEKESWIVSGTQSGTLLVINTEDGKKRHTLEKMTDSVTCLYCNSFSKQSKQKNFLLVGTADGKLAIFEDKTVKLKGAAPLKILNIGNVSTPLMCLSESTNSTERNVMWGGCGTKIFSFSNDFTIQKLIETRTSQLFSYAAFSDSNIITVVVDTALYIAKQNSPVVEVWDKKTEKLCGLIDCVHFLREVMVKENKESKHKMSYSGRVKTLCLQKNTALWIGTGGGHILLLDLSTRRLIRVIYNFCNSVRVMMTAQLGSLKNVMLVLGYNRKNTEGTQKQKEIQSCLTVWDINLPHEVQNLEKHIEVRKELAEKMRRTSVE
Sequence of protein kinases (human kinome) (Homo sapiens, UniProt Q5TCX8) (Q5TCX8 whole entry): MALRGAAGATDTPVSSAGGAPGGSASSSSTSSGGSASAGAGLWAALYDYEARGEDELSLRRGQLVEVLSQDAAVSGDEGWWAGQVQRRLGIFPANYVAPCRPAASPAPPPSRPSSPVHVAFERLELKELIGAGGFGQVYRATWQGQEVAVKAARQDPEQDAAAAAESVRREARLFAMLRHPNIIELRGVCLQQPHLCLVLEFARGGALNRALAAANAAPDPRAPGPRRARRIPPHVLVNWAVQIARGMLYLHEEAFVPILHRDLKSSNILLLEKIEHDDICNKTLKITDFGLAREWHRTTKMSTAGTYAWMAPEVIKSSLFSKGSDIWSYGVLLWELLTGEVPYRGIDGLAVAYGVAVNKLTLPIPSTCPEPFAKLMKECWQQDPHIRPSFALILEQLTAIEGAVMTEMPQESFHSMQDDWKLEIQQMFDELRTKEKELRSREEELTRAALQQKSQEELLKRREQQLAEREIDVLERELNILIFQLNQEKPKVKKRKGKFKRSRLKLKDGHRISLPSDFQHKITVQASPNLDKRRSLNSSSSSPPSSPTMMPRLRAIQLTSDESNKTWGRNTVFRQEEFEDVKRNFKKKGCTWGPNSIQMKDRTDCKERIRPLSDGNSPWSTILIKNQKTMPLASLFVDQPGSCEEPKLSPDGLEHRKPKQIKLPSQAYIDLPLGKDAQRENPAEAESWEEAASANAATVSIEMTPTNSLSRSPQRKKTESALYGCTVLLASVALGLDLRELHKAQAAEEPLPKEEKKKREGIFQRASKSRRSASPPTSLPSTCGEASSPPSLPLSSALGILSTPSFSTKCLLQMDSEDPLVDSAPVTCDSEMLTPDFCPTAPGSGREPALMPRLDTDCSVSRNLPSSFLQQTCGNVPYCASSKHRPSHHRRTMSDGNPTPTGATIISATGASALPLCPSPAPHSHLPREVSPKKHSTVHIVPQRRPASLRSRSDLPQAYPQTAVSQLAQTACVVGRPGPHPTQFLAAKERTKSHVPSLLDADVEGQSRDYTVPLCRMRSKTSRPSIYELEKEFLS
Sequence of protein kinases (human kinome) (Homo sapiens, UniProt O75676) (O75676 whole entry): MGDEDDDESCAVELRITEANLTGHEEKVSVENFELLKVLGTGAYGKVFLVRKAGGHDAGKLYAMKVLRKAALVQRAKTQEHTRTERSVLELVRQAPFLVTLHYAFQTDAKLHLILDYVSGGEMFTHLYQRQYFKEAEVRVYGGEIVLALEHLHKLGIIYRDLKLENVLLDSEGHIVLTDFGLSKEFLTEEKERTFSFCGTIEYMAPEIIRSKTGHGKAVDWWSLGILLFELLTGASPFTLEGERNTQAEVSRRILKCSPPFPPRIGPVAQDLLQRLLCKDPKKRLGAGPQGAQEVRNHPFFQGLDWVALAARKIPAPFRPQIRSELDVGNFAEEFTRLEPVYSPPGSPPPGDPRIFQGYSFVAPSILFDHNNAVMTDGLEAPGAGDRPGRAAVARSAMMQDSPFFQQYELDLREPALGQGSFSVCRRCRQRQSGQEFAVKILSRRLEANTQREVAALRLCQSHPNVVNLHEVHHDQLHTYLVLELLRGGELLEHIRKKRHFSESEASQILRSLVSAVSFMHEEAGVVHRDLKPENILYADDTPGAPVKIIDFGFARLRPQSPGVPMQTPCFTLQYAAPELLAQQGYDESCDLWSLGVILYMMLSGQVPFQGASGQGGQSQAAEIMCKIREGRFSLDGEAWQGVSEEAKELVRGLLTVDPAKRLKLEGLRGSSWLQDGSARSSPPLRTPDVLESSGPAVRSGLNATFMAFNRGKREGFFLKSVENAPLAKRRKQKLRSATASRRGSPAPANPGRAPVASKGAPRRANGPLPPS
Sequence of protein kinases (human kinome) (Homo sapiens, UniProt P07948) (P07948 whole entry): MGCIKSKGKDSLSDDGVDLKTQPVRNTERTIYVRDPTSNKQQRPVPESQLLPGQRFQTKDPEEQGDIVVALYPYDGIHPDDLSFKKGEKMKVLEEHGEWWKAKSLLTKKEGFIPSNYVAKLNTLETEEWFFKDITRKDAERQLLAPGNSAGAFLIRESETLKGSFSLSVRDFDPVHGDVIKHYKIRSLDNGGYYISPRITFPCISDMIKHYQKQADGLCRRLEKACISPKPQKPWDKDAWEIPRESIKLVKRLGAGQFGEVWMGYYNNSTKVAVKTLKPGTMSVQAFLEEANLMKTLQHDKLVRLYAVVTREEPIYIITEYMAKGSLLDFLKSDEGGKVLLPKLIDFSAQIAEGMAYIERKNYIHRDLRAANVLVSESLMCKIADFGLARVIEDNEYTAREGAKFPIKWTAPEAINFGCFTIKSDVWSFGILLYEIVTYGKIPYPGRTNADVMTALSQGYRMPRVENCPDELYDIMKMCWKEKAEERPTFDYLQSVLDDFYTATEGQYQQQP

Take `CC(C)S(=O)(=O)c1ccccc1Nc1nc(Nc2ccc(N3CCN(CCOCCOCCNC(=O)CNc4cccc5c4C(=O)N(C4CCC(=O)NC4=O)C5=O)CC3)cc2)ncc1Cl` (stereo not shown) [TL12.186]: the logFC in experiment [1] (experiment wp131) is −0.969; in experiment [2] (experiment wp131), −0.3783; in experiment [2] (experiment wp131, direction down), −0.3783. For the same molecule, in experiment [1] (experiment wp131), the “logFC MAP3K21 (Q5TCX8)” value is listed as −0.969.
As to `O=C1CCC(N2C(=O)c3cccc(NCCCCCCCCN4CCC(NC(=O)c5[nH]ncc5NC(=O)c5c(Cl)cccc5Cl)CC4)c3C2=O)C(=O)N1` (stereo not shown) [MFH.5.126.1], in experiment [3], the logFC is −0.322.
`Cc1cc(Nc2ncc(Br)c(Nc3cccc(F)c3C(N)=O)n2)ccc1S(=O)(=O)NCCOCCOCCOCCOCCNc1cccc2c1C(=O)N(C1CCC(=O)NC1=O)C2=O` (stereo not shown) [TMX.02.174]: in experiment [4] (experiment wp146), the logFC is on record as −1.5 and the “logFC of RPS6KA4 (O75676)” value is on record as −1.5.
Consider `Cc1ncsc1-c1ccc([C@H](C)NC(=O)[C@@H]2C[C@@H](O)CN2C(=O)[C@@H](NC(=O)CCOCCOCCN2CCN(c3ccc(Nc4ncc(Cl)c(Nc5ccccc5S(=O)(=O)C(C)C)n4)cc3)CC2)C(C)(C)C)cc1` [FMF.06.098.1], for which, in experiment [4] (Experiment wp108), the “logFC of RPSGKA4 (O75676)” value was −0.4196. Further, in experiment [4] (experiment wp108), the logFC is listed as −0.4196. Besides, in experiment [4] (experiment wp131), the logFC is −0.5351 and the “logFC of RPS6KA4 (O75676)” value was −0.5351.
For `Cc1ccc(NC(=O)c2cccc(C(F)(F)F)c2)cc1N1Cc2cnc(Nc3ccc(N4CCN(Cc5cn(CCCCCOc6cccc7c6C(=O)N(C6CCC(=O)NC6=O)C7=O)nn5)CC4)nc3)nc2N(C)C1=O` (stereo not shown) [DB0646, N-(3-(7-((6-(4-((1-(5-((2-(2,6-Dioxopiperidin-3-yl)-1,3-dioxoisoindolin-4-yl)oxy)pentyl)-1H-1,2,3-triazol-4-yl)methyl)piperazin-1-v)pyridin-3-yl)amino)-1-methyl-2-oxo-1,4-dihydropyrimido[4,5-d]pyrimidin-3(2H)-yl)-4-methylphenyl)-3-(trifluoromethyl)benzamide], the “logFC of LRRK2 (Q5S007)” value in experiment [5] (Experiment wp160, 2 hr) is −1.181; in experiment [5] (experiment wp160, 1 hr), −1.165; in experiment [5] (experiment wp160, 4 hr), −1.307; in experiment [5] (experiment wp160, 8 hr) it was −1.747. The logFC in experiment [5] (experiment wp160, 2 hr) was −1.181; in experiment [5] (experiment wp160, 4 hr), −1.307; in experiment [5] (experiment wp160, 1 hr), −1.165; in experiment [5] (experiment wp160, 8 hr), −1.747; in experiment [6] (experiment wp172), −0.7938; in experiment [7] (experiment wp107) it was −0.353. The logFC in experiment [7] (experiment wp117) is −0.3503; in experiment [7] (experiment wp160, 8 hr), −0.4714. Moreover, the “logFC of LYN (P07948-1)” value in experiment [6] (Experiment wp172) is recorded as −0.7938.
Turning to `Cc1ccc(C(=O)Nc2ccc(CN3CCN(CCCOCCOCCOCCNC(=O)COc4cccc5c4C(=O)N(C4CCC(=O)NC4=O)C5=O)CC3)c(C(F)(F)F)c2)cc1C#Cc1cnc2cccnn12` (stereo not shown) [SB1.G.187], the logFC in experiment [6] (experiment wp172) is given as −1.23. The “logFC LYN (P07948-1)” value in experiment [6] (experiment wp172, direction of change down) was −1.23.
Regarding `Nc1ncc(-c2ccc(S(=O)(=O)N(CCCNC(=O)CCOCCOCCOCCOCCOCCNc3cccc4c3C(=O)N(C3CCC(=O)NC3=O)C4=O)C3CC3)cc2)cc1-c1ccc2c(c1)CCNC2=O` (stereo not shown) [WH.10417.099], the logFC in experiment [7] (experiment wp056) is −0.5009; in experiment [7] (experiment wp103) it was −0.5201; in experiment [7] (experiment wp105), −0.3715; in experiment [7] (experiment wp107), −0.5734.
As for `CC(C)S(=O)(=O)c1ccccc1Nc1nc(Nc2ccc(N3CCN(CCOCCNC(=O)CNc4cccc5c4C(=O)N(C4CCC(=O)NC4=O)C5=O)CC3)cc2)ncc1Cl` (stereo not shown) [SK.3.91], the logFC in experiment [1] (experiment wp133, 4 hr) is listed as −0.4685; in experiment [5] (experiment wp160, 1 hr), −0.8447; in experiment [2] (experiment wp103), −0.4564; in experiment [2] (experiment wp103, direction down), −0.4564; in experiment [2] (experiment wp105), −0.3908; in experiment [2] (experiment wp105, direction down) it was −0.3908. Further, the logFC in experiment [2] (experiment wp107) is recorded as −0.6368; in experiment [2] (experiment wp107, direction down) it was −0.6368; in experiment [2] (experiment wp133, 1 hr) it was −0.4397; in experiment [2] (experiment wp133, 1 hr, direction down), −0.4397; in experiment [2] (experiment wp133, 2 hr) it was −0.4411; in experiment [2] (experiment wp133, 2 hr, direction down), −0.4411. Besides, the logFC is −0.7303 in experiment [2] (experiment wp133, 4 hr); −0.7303 in experiment [2] (experiment wp133, 4 hr, direction down); −0.4294 in experiment [2] (experiment wp160, 4 hr); −0.4294 in experiment [2] (experiment wp160, 4 hr, direction down). Moreover, the “logFC MAP3K21 (Q5TCX8)” value in experiment [1] (experiment wp133, 4 hr) is −0.4685. In addition, in experiment [5] (experiment wp160, 1 hr), the “logFC of LRRK2 (Q5S007)” value was −0.8447.
`CNC(=O)c1ccccc1Nc1cc(Nc2ccc(N3CCN(CCOCCOCCNC(=O)CNc4cccc5c4C(=O)N(C4CCC(=O)NC4=O)C5=O)CC3)cc2OC)ncc1C(F)(F)F` (stereo not shown) [MFH.5.103.1] returned a logFC in experiment [3] of −0.3819.
